Here are results for three compounds from ChEMBL document CHEMBL1154813, “Asymmetric synthesis of anticancer beta-lactams via Staudinger reaction: utilization of chiral ketene from carbohydrate” (2010).

What all share (format): functional
The nature of experiment [1]: Cytotoxicity against human BRO cells by MTT assay. A general note: Formazan colour is commonly taken as a measure of viable cells.
Experiment [2] deals with MDA-MB-231. The experiment in a line: Cytotoxicity against human MDA-MB-231 cells by MTT assay.
The subject of experiment [3] is SK-OV-3. The experiment in a line: Cytotoxicity against human SKOV3 cells by MTT assay.
Experiment [4] relates to PC-3. The experiment in a line: Cytotoxicity against human PC3 cells by MTT assay.
Experiment [5] concerns HL-60. The experiment in a line: Cytotoxicity against human HL60 cells by MTT assay.
Experiment [6] has as its system K562. The experiment in a line: Cytotoxicity against human K562 cells by MTT assay.
Experiment [7] concerns HT-29. The experiment can be described thus: Cytotoxicity against human HT-29 cells by MTT assay.

Structures are written as SMILES.

`CC(=O)O[C@@H]1C(=O)N(c2cc3c4ccccc4ccc3c3ccccc23)[C@H]1c1ccccc1`: the INH in experiment [1] was found to be 6.1 µM; in experiment [2], 0.8 µM; in experiment [3] it was 6.8 µM; in experiment [4] it was 1.4 µM; in experiment [5] it was 0.7 µM; in experiment [6] it was 1.1 µM. For the same compound, the INH in experiment [7] is 0.7 µM.
Take `CC(=O)O[C@H]1C(=O)N(c2cc3c4ccccc4ccc3c3ccccc23)[C@@H]1c1ccccc1`: the INH in experiment [1] turned out to be 22 µM; in experiment [2] it was 8.5 µM; in experiment [3], 6.1 µM; in experiment [4] it was 15.5 µM; in experiment [5] it was 5.4 µM; in experiment [6] it was 6 µM. The INH in experiment [7] worked out at 8.3 µM.
Turning to `CC(=O)O[C@H]1C(=O)N(c2cc3c4ccccc4ccc3c3ccccc23)[C@@H]1c1ccccc1` (racemic), the INH in experiment [1] turned out to be 15.7 µM; in experiment [2], 8.7 µM; in experiment [3], 8.9 µM; in experiment [4], 11.1 µM; in experiment [5], 0.7 µM; in experiment [6] it was 1.1 µM. In experiment [7], the INH was 2 µM.
